Experimental findings from patent US9546157B2, “Asymmetric piperidinyl-substituted ureas as medicines” (Helsinn Healthcare SA, priority 2014, dated 2017) are described below.

As a reminder, the IC50 is the midpoint of a concentration-inhibition curve. The term EC50 denotes the midpoint of the concentration-response curve.

Test [1] deals with T1, GHSR1a (Homo sapiens, UniProt Q92847).
T1 construct: expressed in transfected cells; host or cells: HEK293
In words: Calcium FLIPR assay, GHSR-1a antagonism (reduction of ghrelin response). The conditions noted are these: HEK293/GHSR1a cells, ghrelin 10 nM. It is filed as cell-based. The essentials: (§1)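 Uses HEK293 cells expressing GHSR1a, loaded with calcium dye, with FLIPR fluorescence followed for 2 min after addition at t=20 s. Agonism: compound alone. Antagonism: compound with 10 nM ghrelin, potency from reduction of ghrelin response; EC50/IC50 from dose-response curves.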

Test [2] addresses T1, GHSR1a. In words: Calcium FLIPR assay, GHSR-1a agonism. It is filed as cell-based. Further details: Emax: unit not given here. The conditions noted are these: HEK293/GHSR1a cells. In outline:
as §1

Structures are written as SMILES.

T1 sequence (Q92847 whole entry): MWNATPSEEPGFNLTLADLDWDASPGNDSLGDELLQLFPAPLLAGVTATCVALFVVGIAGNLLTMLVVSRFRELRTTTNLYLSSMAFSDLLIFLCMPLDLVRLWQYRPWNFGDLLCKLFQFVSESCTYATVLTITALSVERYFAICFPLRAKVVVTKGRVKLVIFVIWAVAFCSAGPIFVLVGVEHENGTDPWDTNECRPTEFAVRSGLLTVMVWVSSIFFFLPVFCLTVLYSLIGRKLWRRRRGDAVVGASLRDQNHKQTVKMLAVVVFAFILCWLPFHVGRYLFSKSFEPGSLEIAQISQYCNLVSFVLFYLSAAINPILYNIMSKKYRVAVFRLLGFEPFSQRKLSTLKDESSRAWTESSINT

`CC(NC(=O)N(C)C1CCN(C)CC1)c1ccc(-c2cncc(Cl)n2)c(Cl)c1Cl` (stereo not drawn) [Compound H0791, 3-(1-(2,3-dichloro-4-(6-chloropyrazin-2-yl)phenyl)ethyl)-1-methyl-1-(1-methylpiperidin-4-yl)urea]: the IC50 on GHSR1a [1] amounted to 0.075 µM. Also, the EC50 on GHSR1a [2] is more than 30 µM.

Turning to `CC(NC(=O)N(C)C1CCN(C)CC1)c1ccc(-c2cnc(N)s2)c(Cl)c1Cl` (stereo not drawn) [Compound H0792, 3-(1-(4-(2-aminothiazol-5-yl)-2,3-dichlorophenyl)ethyl)-1-methyl-1-(1-methylpiperidin-4-yl)urea], on GHSR1a [1], the 50% inhibitory concentration (IC50) stood at 0.016 µM. For the same molecule, at GHSR1a [2], the half-maximal effective concentration (EC50) turned out to be 0.007 µM and the Emax is reported as 1096.

Consider `CC(NC(=O)N(C)C1CCN(C)CC1)c1ccc(-c2nccnn2)c(Cl)c1Cl` (stereo not drawn) [Compound H0793, 3-(1-(2,3-dichloro-4-(1,2,4-triazin-3-yl)phenyl)ethyl)-1-methyl-1-(1-methylpiperidin-4-yl)urea], for which the IC50 on GHSR1a [1] was found to be 0.021 µM. In addition, on GHSR1a [2], the concentration giving a half-maximal response (EC50) turned out to be 0.022 µM and the Emax turned out to be 3501.

Regarding `CC(NC(=O)N(C)C1CCN(C)CC1)c1ccc(-c2csc(N)n2)c(Cl)c1Cl` (stereo not drawn) [Compound H0794, 3-(1-(4-(2-aminothiazol-4-yl)-2,3-dichlorophenyl)ethyl)-1-methyl-1-(1-methylpiperidin-4-yl)urea], the concentration for half-maximal inhibition (IC50) at GHSR1a [1] is 0.003 µM. At GHSR1a [2], the EC50 amounted to 0.01 µM and the Emax was 4435.

`CC(NC(=O)N(C)C1CCN(C)CC1)c1ccc(-c2nc(N3CCOCC3)nc(N3CCOCC3)n2)c(Cl)c1Cl` (stereo not drawn) [Compound H0796, 3-(1-(2,3-dichloro-4-(4,6-dimorpholino-1,3,5-triazin-2-yl)phenyl)ethyl)-1-methyl-1-(1-methylpiperidin-4-yl)urea]: on GHSR1a [1], the 50% inhibitory concentration (IC50) is 0.826 µM. For the same molecule, on GHSR1a [2], the concentration giving a half-maximal response (EC50) was determined as 3 µM and the Emax is listed as 1671.

`CC(NC(=O)N(C)C1CCN(C)CC1)c1ccc(-c2cnc(O)nc2)c(Cl)c1Cl` (stereo not drawn) [Compound H0797, 3-(1-(2,3-dichloro-4-(2-hydroxypyrimidin-5-yl)phenyl)ethyl)-1-methyl-1-(1-methylpiperidin-4-yl)urea]: the IC50 on GHSR1a [1] was 0.594 µM. For the same molecule, at GHSR1a [2], the EC50 stood at 1.8 µM and the Emax was determined as 2879.

As for `CC(NC(=O)N(C)C1CCN(C)CC1)c1ccc(-c2cnc(N)nc2)c(Cl)c1Cl` (stereo not drawn) [Compound H0798, 3-(1-(4-(2-aminopyrimidin-5-yl)-2,3-dichlorophenyl)ethyl)-1-methyl-1-(1-methylpiperidin-4-yl)urea], the 50% inhibitory concentration (IC50) on GHSR1a [1] was 0.162 µM. The EC50 on GHSR1a [2] was more than 30 µM.

For `CC(NC(=O)N(C)C1CCN(C)CC1)c1ccc(-c2cnc(N3CCN(C)CC3)nc2)c(Cl)c1Cl` (stereo not drawn) [Compound H0799, 3-(1-(2,3-dichloro-4-(2-(4-methylpiperazin-1-yl)pyrimidin-5-yl)phenyl)ethyl)-1-methyl-1-(1-methylpiperidin-4-yl)urea], the half-inhibitory concentration (IC50) on GHSR1a [1] is 0.0054 µM. In addition, on GHSR1a [2], the concentration giving a half-maximal response (EC50) came to 0.014 µM and the Emax is given as 5031.

For the molecule `CC(NC(=O)N(C)C1CCN(C)CC1)c1ccc(-c2cnc(F)nc2)c(Cl)c1Cl` (stereo not drawn) [Compound H0800, 3-(1-(2,3-dichloro-4-(2-fluoropyrimidin-5-yl)phenyl)ethyl)-1-methyl-1-(1-methylpiperidin-4-yl)urea], the concentration for half-maximal inhibition (IC50) on GHSR1a [1] stood at 1.3 µM. Also, the 50% effective concentration (EC50) at GHSR1a [2] was more than 30 µM.

`CC(NC(=O)N(C)C1CCN(C)CC1)c1ccc(-c2cnc(Cl)nc2)c(Cl)c1Cl` (stereo not drawn) [Compound H0801, 3-(1-(2,3-dichloro-4-(2-chloropyrimidin-5-yl)phenyl)ethyl)-1-methyl-1-(1-methylpiperidin-4-yl)urea]: the IC50 on GHSR1a [1] worked out at 0.02 µM. At GHSR1a [2], the EC50 worked out at 0.045 µM and the Emax turned out to be 3915.

Consider `CC(NC(=O)N(C)C1CCN(C)CC1)c1ccc(-c2cnc(C#N)nc2)c(Cl)c1Cl` (stereo not drawn) [Compound H0802, 3-(1-(2,3-dichloro-4-(2-cyanopyrimidin-5-yl)phenyl)ethyl)-1-methyl-1-(1-methylpiperidin-4-yl)urea], for which, at GHSR1a [1], the IC50 was 0.099 µM. For the same molecule, at GHSR1a [2], the half-maximal effective concentration (EC50) came to 0.153 µM and the Emax turned out to be 4149.

For `CC(NC(=O)N(C)C1CCN(C)CC1)c1ccc(-c2cnc(-n3ccnc3)nc2)c(Cl)c1Cl` (stereo not drawn) [Compound H0803, 3-(1-(4-(2-(1H-imidazol-1-yl)pyrimidin-5-yl)-2,3-dichlorophenyl)ethyl)-1-methyl-1-(1-methylpiperidin-4-yl)urea], at GHSR1a [1], the concentration for half-maximal inhibition (IC50) was 0.171 µM. In addition, at GHSR1a [2], the EC50 was determined as 0.149 µM and the Emax is on record as 2364.

As to `CC(NC(=O)N(C)C1CCN(C)CC1)c1ccc(-c2cnc(N(C)C)nc2)c(Cl)c1Cl` (stereo not drawn) [Compound H0804, 3-(1-(2,3-dichloro-4-(2-(dimethylamino)pyrimidin-5-yl)phenyl)ethyl)-1-methyl-1-(1-methylpiperidin-4-yl)urea], the IC50 at GHSR1a [1] amounted to 0.375 µM. On GHSR1a [2], the EC50 was determined as 0.263 µM and the Emax stood at 2740.

`CC(NC(=O)N(C)C1CCN(C)CC1)c1ccc(-c2cnc(NC3CC3)nc2)c(Cl)c1Cl` (stereo not drawn) [Compound H0805, 3-(1-(2,3-dichloro-4-(2-(cyclopropylamino)pyrimidin-5-yl)phenyl)ethyl)-1-methyl-1-(1-methylpiperidin-4-yl)urea]: the half-inhibitory concentration (IC50) on GHSR1a [1] amounted to 0.004 µM. At GHSR1a [2], the concentration giving a half-maximal response (EC50) was found to be 0.009 µM and the Emax turned out to be 5433.

As to `CNc1ncc(-c2ccc(C(C)NC(=O)N(C)C3CCN(C)CC3)c(Cl)c2Cl)cn1` (stereo not drawn) [Compound H0806, 3-(1-(2,3-dichloro-4-(2-(methylamino)pyrimidin-5-yl)phenyl)ethyl)-1-methyl-1-(1-methylpiperidin-4-yl)urea], the IC50 on GHSR1a [1] is 0.0012 µM. Moreover, at GHSR1a [2], the EC50 stood at 0.0068 µM and the Emax worked out at 5751.

As to `CC(NC(=O)N(C)C1CCN(C)CC1)c1ccc(-c2cnc(NC(=O)C3CC3)nc2)c(Cl)c1Cl` (stereo not drawn) [Compound H0807, N-(5-(2,3-dichloro-4-(1-(3-methyl-3-(1-methylpiperidin-4-yl)ureido)ethyl)phenyl)pyrimidin-2-yl)cyclopropanecarboxamide], on GHSR1a [1], the concentration for half-maximal inhibition (IC50) worked out at 0.014 µM. In addition, at GHSR1a [2], the concentration giving a half-maximal response (EC50) was found to be 0.024 µM and the Emax is listed as 3669.

For `Cc1cc(-c2ccc(C(C)NC(=O)N(C)C3CCN(C)CC3)c(Cl)c2Cl)ncn1` (stereo not drawn) [Compound H0808, 3-(1-(2,3-dichloro-4-(6-methylpyrimidin-4-yl)phenyl)ethyl)-1-methyl-1-(1-methylpiperidin-4-yl)urea], the IC50 at GHSR1a [1] was 0.674 µM. For the same molecule, on GHSR1a [2], the EC50 turned out to be 0.09 µM and the Emax turned out to be 1494.

As to `CC(NC(=O)N(C)C1CCN(C)CC1)c1ccc(-c2ccc(C#N)cc2)c(Cl)c1Cl` (stereo not drawn) [Compound H0809, 3-(1-(2,3-dichloro-4′-cyano-[1,1′-biphenyl]-4-yl)ethyl)-1-methyl-1-(1-methylpiperidin-4-yl)urea], the half-maximal inhibitory concentration (IC50) at GHSR1a [1] came out at 0.149 µM. Also, on GHSR1a [2], the EC50 amounted to 0.217 µM and the Emax was found to be 2339.

For the molecule `CC(NC(=O)N(C)C1CCN(C)CC1)c1ccc(-c2cccc(F)c2)c(Cl)c1Cl` (stereo not drawn) [Compound H0810, 3-(1-(2,3-dichloro-3′-fluoro-[1,1′-biphenyl]-4-yl)ethyl)-1-methyl-1-(1-methylpiperidin-4-yl)urea], the IC50 on GHSR1a [1] was found to be 0.02 µM. At GHSR1a [2], the half-maximal effective concentration (EC50) is 0.022 µM and the Emax amounted to 2339.

For the molecule `CC(NC(=O)N(C)C1CCN(C)CC1)c1ccc(C#CCN2CCN(C)CC2)c(Cl)c1Cl` (stereo not drawn) [Compound H0812, 3-(1-(2,3-dichloro-4-(3-(4-methylpiperazin-1-yl)prop-1-yn-1-yl)phenyl)ethyl)-1-methyl-1-(1-methylpiperidin-4-yl)urea], the IC50 at GHSR1a [1] stood at 1.2 µM. For the same molecule, on GHSR1a [2], the EC50 came to 1.5 µM and the Emax is 871.

For `CC(NC(=O)N(C)C1CCN(C)CC1)c1ccc(-c2cnc(N3CCCC3)nc2)c(Cl)c1Cl` (stereo not drawn) [Compound H0813], the concentration for half-maximal inhibition (IC50) at GHSR1a [1] was 0.644 µM. In addition, on GHSR1a [2], the half-maximal effective concentration (EC50) worked out at 0.528 µM and the Emax was found to be 1605.

As to `CCN1CCN(c2ncc(-c3ccc(C(C)NC(=O)N(C)C4CCN(C)CC4)c(Cl)c3Cl)cn2)CC1=O` (stereo not drawn) [Compound H0814, 3-(1-(2,3-dichloro-4-(2-(4-ethyl-3-oxopiperazin-1-yl)pyrimidin-5-yl)phenyl)ethyl)-1-methyl-1-(1-methylpiperidin-4-yl)urea], the IC50 at GHSR1a [1] worked out at 0.926 µM. For the same molecule, at GHSR1a [2], the EC50 came out at 0.015 µM and the Emax worked out at 1097.

In the case of `Cc1cncc(-c2ccc(C(C)NC(=O)N(C)C3CCN(C)CC3)c(Cl)c2Cl)n1` (stereo not drawn) [Compound H0815, 3-(1-(2,3-dichloro-4-(6-methylpyrazin-2-yl)phenyl)ethyl)-1-methyl-1-(1-methylpiperidin-4-yl)urea], the half-inhibitory concentration (IC50) on GHSR1a [1] was found to be 0.176 µM. Also, the half-maximal effective concentration (EC50) on GHSR1a [2] was more than 30 µM.

As to `CC(NC(=O)N(C)C1CCN(C)CC1)c1ccc(-c2ccc(C3CC3)nc2)c(Cl)c1Cl` (stereo not drawn) [Compound H0820, 3-(1-(2,3-dichloro-4-(6-cyclopropylpyridin-3-yl)phenyl)ethyl)-1-methyl-1-(1-methylpiperidin-4-yl)urea], at GHSR1a [1], the half-maximal inhibitory concentration (IC50) stood at 0.0057 µM. At GHSR1a [2], the EC50 is 0.009 µM and the Emax is given as 3955.

As for `CC(NC(=O)N(C)C1CCN(C)CC1)c1ccc(-c2cnc(N3CCN(C)CC3)c(C#N)c2)c(Cl)c1Cl` (stereo not drawn) [Compound H0821, 3-(1-(2,3-dichloro-4-(5-cyano-6-(4-methylpiperazin-1-yl)pyridin-3-yl)phenyl)ethyl)-1-methyl-1-(1-methylpiperidin-4-yl)urea], the IC50 on GHSR1a [1] amounted to 2.3 µM. In addition, the EC50 at GHSR1a [2] is more than 30 µM.

`CC(NC(=O)N(C)C1CCN(C)CC1)c1ccc(-c2cnc(N3CCN(C)CC3)cn2)c(Cl)c1Cl` (stereo not drawn) [Compound H0822, 3-(1-(2,3-dichloro-4-(5-(4-methylpiperazin-1-yl)pyrazin-2-yl)phenyl)ethyl)-1-methyl-1-(1-methylpiperidin-4-yl)urea]: the IC50 on GHSR1a [1] was 1.2 µM. Besides, the EC50 at GHSR1a [2] is more than 30 µM.
